Source: patent US20230083717A1, “METHODS AND COMPOSITIONS FOR PROMOTING ADIPOCYTE BEIGING” (Flagship Pioneering Innovations VI, LLC, priority 2021, published 2023)

Tested on: UCP1
Assay: in vivo assay of induction of beige adipocytes in visceral and subcutaneous fat depots
Conditions: 1 mg/kg intraperitoneal, C57Bl6/J mice, vs control mice
Experimental: An in vivo assay of induction of beige adipocytes in visceral and subcutaneous fat depots was established using the β3-receptor agonist CL316243. 8-week old male C57Bl6/J mice were dosed with 1 mg/kg CL316243 with intraperitoneal injections, either every day for 1 week or every other day for two weeks. The vehicle was used as a negative control. Following the dosage administration, the mice were sacrificed, and epididymal (visceral) and inguinal (subcutaneous) fat was excised. The expression of UCP1 was assessed in the excised epididymal (visceral) and inguinal (subcutaneous) fat, by western blot and immunohistochemistry. […] The adipose tissue cells in epididymal (visceral) and inguinal (subcutaneous) fat from CL 316234 treated mice were also smaller compared to the cells from control mice (FIG. 3A).

C[C@H](Cc1ccc2c(c1)OC(C(=O)O)(C(=O)O)O2)NC[C@H](O)c1cccc(Cl)c1 [CL 316234]
expression of UCP1 by immunohistochemistry in epididymal (visceral) and inguinal (subcutaneous) fat: increased expression of UCP1
expression of UCP1 by western blot in inguinal and epididymal fat: increased expression of UCP1
size of adipose tissue cells in epididymal and inguinal fat: smaller
